The values that follow come from patent publication US20240376099A1, “COMPOUNDS AND COMPOSITIONS AS INHIBITORS OF ENDOSOMAL TOLL-LIKE RECEPTORS” (Novartis AG, priority 2016, published 2024).

pIC50: −log10 of the molar value.

This assay addresses T1, TLR8 (Homo sapiens, UniProt Q9NR97).
T1 sequence (Q9NR97 27-1041): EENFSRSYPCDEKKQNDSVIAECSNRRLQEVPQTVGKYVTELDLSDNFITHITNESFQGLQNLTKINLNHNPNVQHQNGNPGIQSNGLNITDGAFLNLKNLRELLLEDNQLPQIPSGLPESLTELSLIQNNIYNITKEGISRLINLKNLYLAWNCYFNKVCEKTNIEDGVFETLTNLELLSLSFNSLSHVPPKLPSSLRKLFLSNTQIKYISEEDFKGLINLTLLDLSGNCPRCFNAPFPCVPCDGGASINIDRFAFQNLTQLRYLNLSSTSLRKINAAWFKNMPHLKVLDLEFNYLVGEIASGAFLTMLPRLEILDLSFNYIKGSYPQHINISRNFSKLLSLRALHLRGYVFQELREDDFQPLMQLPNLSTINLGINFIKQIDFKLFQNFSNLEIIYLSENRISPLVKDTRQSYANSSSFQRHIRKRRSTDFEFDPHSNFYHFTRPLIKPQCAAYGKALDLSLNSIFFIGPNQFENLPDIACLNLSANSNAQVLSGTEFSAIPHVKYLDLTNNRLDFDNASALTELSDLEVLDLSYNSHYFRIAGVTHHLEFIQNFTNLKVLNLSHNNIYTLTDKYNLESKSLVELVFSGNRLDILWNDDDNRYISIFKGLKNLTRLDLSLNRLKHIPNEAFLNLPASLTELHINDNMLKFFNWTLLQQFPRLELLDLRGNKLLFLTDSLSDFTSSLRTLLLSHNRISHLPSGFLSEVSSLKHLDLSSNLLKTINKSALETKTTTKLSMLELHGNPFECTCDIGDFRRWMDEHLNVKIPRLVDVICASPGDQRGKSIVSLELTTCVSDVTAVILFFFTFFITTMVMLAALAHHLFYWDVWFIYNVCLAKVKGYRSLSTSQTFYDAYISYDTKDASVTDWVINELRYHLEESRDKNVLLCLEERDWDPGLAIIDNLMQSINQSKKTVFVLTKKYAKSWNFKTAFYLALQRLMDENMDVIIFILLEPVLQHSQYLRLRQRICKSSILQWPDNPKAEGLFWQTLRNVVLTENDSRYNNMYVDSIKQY
As to the kind of experiment: huPBMC TLR8 Antagonist IL-6 TR-FRET Assay. In kind it is cell-based. The arrangement: Fresh blood was collected from normal human donors; endogenous in cells; host or cells: human PBMCs from fresh donor blood. The conditions noted are these: human PBMCs stimulated with ssRNA40 1 μg/ml (DOTAP), 14-16 hrs; IL-6 TR-FRET read-out. The essentials: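 Human PBMCs from fresh donor blood (150,000 cells/well) stimulated 14–16 h at 37 °C with DOTAP-complexed ssRNA40 (final 1 μg/ml for TLR8, 10 μg/mL for TLR7) or ODN2216 (final 0.3 μM, TLR9), 0.25% DMSO, ten-point 1/3 compound dilutions. Supernatant IL-6 read by HTRF (TLR8); IFNα by IFNα2b AlphaLISA (TLR7/TLR9).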
(In TR-FRET formats the signal depends on donor and acceptor labels being close together.)

Consider `CN[C@H](C)C(=O)NC12CCC(Cn3nc(C)c4c3CCN(c3cc(C)nc5c3cnn5C)C4)(CC1)CC2` [compound 117, (R)-N-(4-((5-(1,6-dimethyl-1H-pyrazolo[3,4-b]pyridin-4-yl)-3-methyl-4,5,6,7-tetrahydro-1H-pyrazolo[4,3-c]pyridin-1-yl)methyl)bicyclo[2.2.2]octan-1-yl)-2-(methylamino)propanamide], for which the pIC50 was 6.63.

Consider `CN[C@@H](C)C(=O)NC12CCC(Cn3nc(C)c4c3CCN(c3cc(C)nc5c3cnn5C)C4)(CC1)CC2` [compound 118], for which the pIC50 was 6.71.

For `CNCC(=O)NC12CCC(Cn3nc(C)c4c3CCN(c3cc(C)nc5c3cnn5C)C4)(CC1)CC2` [compound 121, N-(4-((5-(1,6-dimethyl-1H-pyrazolo[3,4-b]pyridin-4-yl)-3-methyl-4,5,6,7-tetrahydro-1H-pyrazolo[4,3-c]pyridin-1-yl)methyl)bicyclo[2.2.2]octan-1-yl)-2-(methylamino)acetamide], the pIC50 was 7.41.

For `Cc1cc(N2CCc3c(c(C)nn3CC34CCC(NCC(C)(C)O)(CC3)CC4)C2)c2cnn(C)c2n1` [compound 123, 1-((4-((5-(1,6-dimethyl-1H-pyrazolo[3,4-b]pyridin-4-yl)-3-methyl-4,5,6,7-tetrahydro-1H-pyrazolo[4,3-c]pyridin-1-yl)methyl)bicyclo[2.2.2]octan-1-yl)amino)-2-methylpropan-2-ol], the pIC50 was 6.92.

With `CCNCC(=O)NC12CCC(Cn3nc(C)c4c3CCN(c3cc(C)nc5cn[nH]c35)C4)(CC1)CC2` [compound 124, 2-(ethylamino)-N-(4-((3-methyl-5-(5-methyl-1H-pyrazolo[4,3-b]pyridin-7-yl)-4,5,6,7-tetrahydro-1H-pyrazolo[4,3-c]pyridin-1-yl)methyl)bicyclo[2.2.2]octan-1-yl)acetamide], the pIC50 is less than 5.00.

Regarding `Cc1cc(N2CCc3c(c(C)nn3CC34CCC(NC(=O)C5CNCCO5)(CC3)CC4)C2)c2cnn(C)c2n1` (centres unmarked) [compound 125, N-(4-((5-(1,6-dimethyl-1H-pyrazolo[3,4-b]pyridin-4-yl)-3-methyl-4,5,6,7-tetrahydro-1H-pyrazolo[4,3-c]pyridin-1-yl)methyl)bicyclo[2.2.2]octan-1-yl)morpholine-2-carboxamide], the pIC50 was 7.37.

On to `CCNCCC(=O)NC12CCC(Cn3nc(C)c4c3CCN(c3cc(C)nc5c3cnn5C)C4)(CC1)CC2` [compound 126, N-(4-((5-(1,6-dimethyl-1H-pyrazolo[3,4-b]pyridin-4-yl)-3-methyl-4,5,6,7-tetrahydro-1H-pyrazolo[4,3-c]pyridin-1-yl)methyl)bicyclo[2.2.2]octan-1-yl)-3-(ethylamino)propanamide], for which the pIC50 was 6.82.

Take `CCNC12CCC(Cn3nc(C)c4c3CCN(c3ccnc(-c5ccccc5)c3)C4)(CC1)CC2` [compound 127, N-ethyl-4-((3-methyl-5-(2-phenylpyridin-4-yl)-4,5,6,7-tetrahydro-1H-pyrazolo[4,3-c]pyridin-1-yl)methyl)bicyclo[2.2.2]octan-1-amine]: the pIC50 was 5.85.

Take `Cc1cc(N2CCc3c(c(C)nn3CC34CCC(N5CCOC[C@@H]5C)(CC3)CC4)C2)c2cnn(C)c2n1` [compound 128, (S)-4-(4-((5-(1,6-dimethyl-1H-pyrazolo[3,4-b]pyridin-4-yl)-3-methyl-4,5,6,7-tetrahydro-1H-pyrazolo[4,3-c]pyridin-1-yl)methyl)bicyclo[2.2.2]octan-1-yl)-3-methylmorpholine]: the pIC50 was 7.89.

For the molecule `Cc1cc(N2CCc3c(c(C)nn3CC34CCC(N5CCOC[C@H]5C)(CC3)CC4)C2)c2cnn(C)c2n1` [compound 129, (R)-4-(4-((5-(1,6-dimethyl-1H-pyrazolo[3,4-b]pyridin-4-yl)-3-methyl-4,5,6,7-tetrahydro-1H-pyrazolo[4,3-c]pyridin-1-yl)methyl)bicyclo[2.2.2]octan-1-yl)-3-methylmorpholine], the pIC50 was 7.92.

`COCCNC12CCC(Cn3nc(C)c4c3CCN(c3ccnc(-c5ccccc5)c3)C4)(CC1)CC2` [compound 130, N-(2-methoxyethyl)-4-((3-methyl-5-(2-phenylpyridin-4-yl)-4,5,6,7-tetrahydro-1H-pyrazolo[4,3-c]pyridin-1-yl)methyl)bicyclo[2.2.2]octan-1-amine]: the pIC50 was 5.55.

Consider `Cc1cc(N2CCc3c(c(C)nn3CC34CCC(NC(=O)C5CNC5)(CC3)CC4)C2)c2cnn(C)c2n1` [compound 131, N-(4-((5-(1,6-dimethyl-1H-pyrazolo[3,4-b]pyridin-4-yl)-3-methyl-4,5,6,7-tetrahydro-1H-pyrazolo[4,3-c]pyridin-1-yl)methyl)bicyclo[2.2.2]octan-1-yl)azetidine-3-carboxamide], for which the pIC50 is 6.44.

Consider `CCN(C)CC(=O)NC12CCC(Cn3nc(C)c4c3CCN(c3cc(C)nc5c3cnn5C)C4)(CC1)CC2` [compound 132, N-(4-((5-(1,6-dimethyl-1H-pyrazolo[3,4-b]pyridin-4-yl)-3-methyl-4,5,6,7-tetrahydro-1H-pyrazolo[4,3-c]pyridin-1-yl)methyl)bicyclo[2.2.2]octan-1-yl)-2-(ethyl(methyl)amino)acetamide], for which the pIC50 is 8.10.

Take `[2H]C([2H])([2H])N(CC(=O)NC12CCC(Cn3nc(C)c4c3CCN(c3cc(C)nc5c3cnn5C)C4)(CC1)CC2)C([2H])([2H])[2H]` [compound 134, 2-(bis(trideuteromethyl)amino)-N-(4-((5-(1,6-dimethyl-1H-pyrazolo[3,4-b]pyridin-4-yl)-3-methyl-4,5,6,7-tetrahydro-1H-pyrazolo[4,3-c]pyridin-1-yl)methyl)bicyclo[2.2.2]octan-1-yl)acetamide]: the pIC50 was 7.03.

`Cc1cc(N2CCc3c(c(C)nn3CC34CCC(NCC5(CO)COC5)(CC3)CC4)C2)c2cnn(C)c2n1` [compound 137, (3-(((4-((5-(1,6-dimethyl-1H-pyrazolo[3,4-b]pyridin-4-yl)-3-methyl-4,5,6,7-tetrahydro-1H-pyrazolo[4,3-c]pyridin-1-yl)methyl)bicyclo[2.2.2]octan-1-yl)amino)methyl)oxetan-3-yl)methanol]: the pIC50 was 7.17.

Regarding `CCn1ncc2c(N3CCc4c(c(C)nn4CC45CCC(NC(=O)[C@@H]6COCCN6)(CC4)CC5)C3)cc(C)nc21` [compound 141, (S)-N-(4-((5-(1-ethyl-6-methyl-1H-pyrazolo[3,4-b]pyridin-4-yl)-3-methyl-4,5,6,7-tetrahydro-1H-pyrazolo[4,3-c]pyridin-1-yl)methyl)bicyclo[2.2.2]octan-1-yl)morpholine-3-carboxamide], the pIC50 is 5.64.

As for `CNCCC(=O)NC12CCC(Cn3nc(C)c4c3CCN(c3cc(C)nc5c3cnn5C)C4)(CC1)CC2` [compound 142, N-(4-((5-(1,6-dimethyl-1H-pyrazolo[3,4-b]pyridin-4-yl)-3-methyl-4,5,6,7-tetrahydro-1H-pyrazolo[4,3-c]pyridin-1-yl)methyl)bicyclo[2.2.2]octan-1-yl)-3-(methylamino)propanamide], the pIC50 was 6.03.

Consider `Cc1cc(N2CCc3c(c(C)nn3CC34CCC(NC5CCC5)(CC3)CO4)C2)c2cnn(C)c2n1` [compound 143, N-cyclobutyl-1-((5-(1,6-dimethyl-1H-pyrazolo[3,4-b]pyridin-4-yl)-3-methyl-4,5,6,7-tetrahydro-1H-pyrazolo[4,3-c]pyridin-1-yl)methyl)-2-oxabicyclo[2.2.2]octan-4-amine], for which the pIC50 was 6.16.

`Cc1nn(CC23CCC(NC4CCC4)(CC2)CC3)c2c1CN(c1ccnc(-c3ccccc3)c1)CC2` [compound 144, N-cyclobutyl-4-((3-methyl-5-(2-phenylpyridin-4-yl)-4,5,6,7-tetrahydro-1H-pyrazolo[4,3-c]pyridin-1-yl)methyl)bicyclo[2.2.2]octan-1-amine]: the pIC50 is 6.98.

`Cc1cc(N2CCc3c(c(C)nn3CC34CCC(NC(=O)OC(C)(C)C)(CC3)C4)C2)c2cnn(C)c2n1` [compound 148, tert-butyl (4-((5-(1,6-dimethyl-1H-pyrazolo[3,4-b]pyridin-4-yl)-3-methyl-4,5,6,7-tetrahydro-1H-pyrazolo[4,3-c]pyridin-1-yl)methyl)bicyclo[2.2.1]heptan-1-yl)carbamate]: the pIC50 was less than 5.00.

A word on the pIC50: it is the negative decadic logarithm of the IC50, by convention in mol/L.
